Laboratory results taken from PubChem BioAssay (NCI).
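Test compounds were applied to cells in 96-well plates for 48 hours at 5 doses. GI50 marks 50% less growth. Definition used: TGI = concentration required for complete inhibition of growth.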

Legend:
Assay in all cases: inhibition of tumour cell growth, NCI panel, 48 h
[1] = system: UO-31 renal
[2] = system: MOLT-4 leukemia
[3] = system: KM12 colon
[4] = system: DU-145 prostate
[5] = system: COLO 205 colon
[6] = system: UACC-62 melanoma
[7] = system: HCC-2998 colon
[8] = system: SF-539 CNS
[9] = system: ACHN renal
[10] = system: NCI/ADR-RES ovarian
[11] = system: IGROV1 ovarian
[12] = system: MDA-MB-435
[13] = system: OVCAR-5 ovarian
[14] = system: UACC-257 melanoma
[15] = system: SN12C renal
[16] = system: TK-10 renal
[17] = system: OVCAR-3 ovarian
[18] = system: SF-295 CNS
[19] = system: SW-620 colon
[20] = system: SNB-75 CNS
[21] = system: NCI-H460 lung
[22] = system: RXF 393 renal
[23] = system: HOP-92 NSCLC
[24] = system: A549 NSCLC
[25] = system: PC-3 prostate
[26] = system: NCI-H522 lung
[27] = system: SK-MEL-2 melanoma
[28] = system: SF-268 CNS
[29] = system: LOX IMVI melanoma

## O=C(Nc1ccc(Cl)c(C(F)(F)F)c1)Nc1ccc2c(ccn2C(=O)c2cccc(F)c2)c1
[1]
  TGI: 4.42 µM
[2]
  GI50: 3.4 µM
  TGI: > 100 µM
[3]
  GI50: 2.83 µM
  TGI: 12 µM
[4]
  GI50: 3.5 µM
  TGI: 48.8 µM
[5]
  GI50: 2.25 µM
  TGI: 5.57 µM
[6]
  GI50: 2.53 µM
  TGI: 15.3 µM
[7]
  GI50: 2.49 µM
  TGI: 9.04 µM
[8]
  GI50: 2.71 µM
  TGI: 8.26 µM
[9]
  GI50: 2.56 µM
  TGI: 7.47 µM
[10]
  GI50: 2.5 µM
  TGI: 7.25 µM
[11]
  GI50: 2.75 µM
  TGI: 10.6 µM
[12]
  GI50: 2.84 µM
  TGI: 14.1 µM
[13]
  GI50: 4.86 µM
  TGI: 38.9 µM
[14]
  GI50: 2.44 µM
  TGI: 7.74 µM
[15]
  GI50: 3.1 µM
  TGI: 15.8 µM
[16]
  GI50: 2.91 µM
  TGI: 36.5 µM
[17]
  GI50: 2.16 µM
  TGI: 6.2 µM
[18]
  GI50: 1.93 µM
  TGI: 4.76 µM
[19]
  GI50: 3.5 µM
  TGI: 35.8 µM
[20]
  GI50: 1.9 µM
  TGI: 9.11 µM
[21]
  GI50: 2.8 µM
  TGI: 10 µM
[22]
  GI50: 1.74 µM
  TGI: 4.08 µM
[23]
  GI50: 2.07 µM
  TGI: 5.77 µM
[24]
  GI50: 2.9 µM
  TGI: 22.7 µM
[25]
  GI50: 2.92 µM
  TGI: 33.5 µM
[26]
  GI50: 2.42 µM
  TGI: 7.67 µM
[27]
  GI50: 2.36 µM
  TGI: 6.89 µM
[28]
  GI50: 3.43 µM
  TGI: > 100 µM
[29]
  GI50: 1.43 µM
  TGI: 3.28 µM
